Test results published in US12310950B2, “Formulations of pyrrolopyridine-aniline compounds” (NFLECTION THERAPEUTICS, INC., priority 2021, dated 2025).
Entries after “also recorded” stand apart in the source; their conditions may differ.

Experiments:
[1] = system: p-ERK; assay: Ex vivo cutaneous neurofibroma explants (Example 20): p-ERK by immunohistochemistry; type: cell-based, human; conditions: 3 μl of gel formulation on explant; 0.1% or 0.5% by weight
Experimental: The study was conducted using a protocol similar to Example 16 with some modifications as described below.
Skin samples divided to smaller 3-4 mm pieces and placed dermal side down onto membranes. The edges of the samples were sealed with semisoft 3% agarose prepared in DMEMF-12 medium, and the apical surface was kept in contact with air to use formulations. The basal surface was in contact with the growth medium DMEMF-12 containing 10% human serum, Amphotericin B, Penicillin-Streptomycin and 1XB27. This set up enables testing of transdermal drug delivery while the tissues remain viable in the medium for the duration of the test. 3 μl of the test formulation was used.
Immunohistochemistry: Immunohistochemistry for p-ERK was performed using standard operating procedures and fully automated workflow.
3 μl of the test formulation was used.

[2] = system: cSCC; assay: UV-driven mouse model of cSCC, split-mouse study: total tumor burden; type: in vivo, Hairless SKH-1E mice; conditions: split-control, 1.0% Compound 1.003 on one side, vehicle on the other, 30 days, n=5
Experimental: To internally control for potential systemic exposure, 5 mice were treated in split-control fashion with one side getting vehicle only and the other side of the same mouse receiving topical 1.0% Compound 1.003. Total tumor burden (summed volume) is quantified in untreated vs. treated sides at the beginning (black) as compared to the end of treatment 30 days later (n=5).
To definitively address the possibility of systemic exposure and non-local effects of topically applied Compound 1.003, 5 mice was treated in split-control fashion with one side with vehicle only and the other side with 1.0% Compound 1.003.

[3] = system: p-ERK; assay: p-ERK suppression in rat skin by oral administration; type: in vivo
Experimental: p-ERK suppression in rat skin was evaluated by oral administration of Compound 1.003.

[4] = in vivo; conditions: rat, po, 300 mg/kg/day
[5] = system: cSCC; assay: UV-driven mouse model of cSCC, chemoprevention study: number of tumors; type: in vivo, Hairless SKH-1E mice
Experimental: 136, no. 9, 2016, pp. 1920-1924 by Adelmann, C. H., et al., the entirety of which is incorporated herein by reference for all purposes. UV radiation was administered using a solar simulator (Oriel) metered at 12.5 kJ/m^2 UVB weekly, 3.4 SED for three months on Hairless SKH-1E mice.
Samples: The gel formulation (NA-1a) including Compound 1.003 in an amount of 0.1%, 0.5%, 1.0%, and 2.3% by weight of the formulation was used in the study.
(§1) A UV-driven mouse model was used to test if a topical formulation including Compound 1.003 could be used to reduce tumor burden in vivo. […] Once a mouse developed one tumor that measured 3 mm in diameter, they were randomly assigned to receive Vehicle, 0.1% Compound 1.003, 0.5% Compound 1.003, 1.0% Compound 1.003, or 2.3% Compound 1.003. Once enrolled, mice were treated with 200 uL of vehicle or the gel formulation of Compound 1.003. Drug was evenly applied to the back skin of the mouse and allowed to dry. Mice were treated for 30 days (5 d/week). […] Skin biopsies were obtained 4 hours after drug treatment at end of study.

[6] = system: ICI; assay: CellTiter-Glo Luminescent Cell Viability Assay, SCC cells ICI; type: cell-based, human; conditions: 72 hours, 0.01-30 μM, compared to NHEK
[7] = system: p-ERK; assay: Minipig non-GLP 28-day dermal tolerability study: p-ERK suppression in skin; type: in vivo; conditions: Compound 1.003 in gel formulation (NA-1a), 0.01% and 0.1%, 28 days
Experimental: Non-GLP 28-Day Dermal Tolerability Study: 4 doses of A-D formulations applied to each of 4 pigs (2 females, 2 males), where A: vehicle (NA-1a without Compound 1.003) at 30 uL/cm^2; B: NA-1a-0.01% at 10 uL/cm^2; C: NA-1a-0.1% at 30 uL/cm^2; and D: NA-1a-0.1% at 10 uL/cm^2. Minipigs were treated […] for 28 days. Biopsy obtained 4 hours after last dose on Day 28.

[8] = system: p-ERK1/2; assay: UV-driven mouse model of cSCC: nano-immunoassay for p-ERK1/2 and total ERK1/2 in skin biopsies; type: in vivo, Hairless SKH-1E mice
Experimental: as §1

[9] = UV-driven mouse model of cSCC: tolerability (skin, body weight); type: in vivo, Hairless SKH-1E mice; conditions: topical 0.1%-2.3%, 30 days
Experimental: as §1

[10] = system: COLO 16; assay: CellTiter-Glo Luminescent Cell Viability Assay, SCC cells COLO 16; type: cell-based, human; conditions: 72 hours, 0.01-30 μM, compared to NHEK
[11] = system: phosphorylated-ERK1/2 (pERK); assay: Human cSCC explant: immunohistochemistry for p-ERK; type: cell-based; conditions: 0.1% Compound 1.003 in NA-1a gel formulation on epidermal surface for 4 hours, vs vehicle
[12] = system: p-ERK; assay: Ex vivo human cutaneous neurofibroma explants (Example 16): p-ERK by Western Blot; type: cell-based; conditions: Compound 1.003 0.5% and 1.5%, topical on explant, 4 hours
Experimental: Biopsies of cutaneous neurofibroma were taken from patients undergoing excision of neurofibromas for clinical purposes. The ex vivo human explant model was established by incubating sections of biopsies of human cutaneous neurofibroma. Cutaneous Neurofibroma samples were removed from patients, transferred immediately to the lab in 15 ml […] tubes containing 5 ml DMEM/F-12 medium (Thermo Fisher, Cat #11320033) supplemented with 1XB27 supplement (Gibco™ B-27™ Supplement (50×) serum free (Cat #17504044), 2.5 μg/ml of Amphotericin B (Thermo Fisher, Cat #15290018), and 50 units/ml of Penicillin-50 μg/ml of Streptomycin (Thermo Fisher, Cat #15070063), and 10% human serum (Gemini 100-110). Skin samples divided to smaller 3-4 mm pieces and placed dermal side down onto membranes (Transwell Permeable Supports, 12 well plate, Corning 12 mm Transwell® with 3.0 μm Pore Polycarbonate Membrane Insert, Sterile Corning #3402). The edges of the samples were sealed with semisoft 3% agarose (Sigma, CAS 9012-36-6) prepared in DMEMF-12 medium, and the apical surface was kept in contact with air to use formulations. […]
Western Blot analysis: Frozen skin samples were thawed on ice and weighed. […] The lysate protein concentration was determined by the BCA protein assay kit using bovine serum albumin (BSA) as standards. […]

[13] = systemic exposure; cited from earlier work

For `Cn1c(Nc2ccc(I)cc2F)c(C(=O)NOCCO)c2cccnc21` [Compound 1.003], the “suppression of p-ERK by immunohistochemistry” value [1] was “Dose dependent suppression”, the “total tumor volume / tumor burden on the treated side” value [2] was “Substantial tumor regression and tumor suppression; also recorded: decreased to nearly undetectable levels” and the “change of p-ERK after oral administration (FIG. 2)” value ([3]; rat skin, oral, various doses) was “no change of p-ERK”. The “suppression of p-ERK in the skin” value ([3]; rat, 21-days of oral administration at 300 mg/kg/day) was “not observed”, the Cmax [4] was ~1360 ng/mL and the “number of tumors at the end of treatment, 0.1%” value ([5]; 0.1% in gel (NA-1a), 30 days, n=10 mice, vehicle 60 tumors) was 31 tumors. For the same compound, the “number of tumors at the end of treatment, 0.5%” value ([5]; 0.5% in gel (NA-1a), 30 days, n=10 mice, vehicle 60 tumors) was 23 tumors, the “suppression of new tumors at 1.0% dose and above” value ([5]; 1.0% dose and above, 30 days, n=10 per group) was “near complete suppression of new tumors” and the “number of tumors at the end of treatment, 1.0%” value ([5]; 1.0% in gel (NA-1a), 30 days, n=10 mice, vehicle 60 tumors) was 13 tumors. For the same compound, the “number of tumors at the end of treatment, 2.3%” value ([5]; 2.3% in gel (NA-1a), 200 uL, 30 days (5 d/week), n=10 mice, vehicle 60 tumors) was 16 tumors, the “total tumors / new tumor formation (FIG. 5)” value ([5]; gel formulation (NA-1a), 0.1%-2.3%, 30 days) was “dramatically suppresses new tumor formation; also recorded: suppression of total tumors” and the “decrease in the total number of tumors present at the end of treatment” value ([5]; highest doses of Compound 1.003, vs vehicle) was “approximately 4 fold”. The “cell viability, ICI” value [6] was “dose dependent reduction in cell viability”, the “suppression of p-ERK in minipig skin (FIG. 1)” value [7] was “dose dependent suppression of p-ERK” and the “p-ERK levels in skin biopsies (nano-immunoassay)” value ([8]; 0.1% and greater vs vehicle, biopsies 4 hours after drug treatment at end of study) was “suppression of p-ERK levels”. For the same compound, the “suppression of p-ERK levels in mouse skin (FIG. 6B, text)” value ([8]; concentrations 0.6 or greater (so in the source), in %) was ≥ 65, the “suppression of p-ERK levels in mouse skin (FIG. 6B legend)” value ([8]; mouse skin treated with Compound 1.003) was ≥ 65% and the “skin peeling or erosions” value [9] was “No skin peeling or erosions were observed”. For the same compound, the “weight loss (biweekly weight measurement)” value [9] was “no weight loss”, the “cell viability, COLO 16” value [10] was “dose dependent reduction in cell viability” and the “suppression of p-ERK in human cSCC specimens (immunohistochemistry)” value [11] was “robust suppression of p-ERK”. For the same compound, the “suppression of p-ERK by Western Blot analysis” value [12] was “complete suppression of p-ERK”.
With `O=C1CCCc2c1sc(Nc1ccc(I)cc1F)c2C(=O)NOCCO` [Compound 2.003] the “suppression of p-ERK by immunohistochemistry” value [1] was “Dose dependent suppression”.
For `O=C(NOC[C@H](O)CO)c1ccc(F)c(F)c1Nc1ccc(I)cc1F` [PD0325901], the “side effects in clinical trials” value [13] is listed as “neurological side effects associated with ataxia, confusion, and syncope”.
